Reference: PMC7447632, “Highly functionalized β-lactams and 2-ketopiperazines as TRPM8 antagonists with antiallodynic activity” (Scientific Reports, 2020)

Columns and labels:
TRPM8 = settings: cited from earlier work; for IC50: Figure 1, literature values; for EC50: Figure 1, literature value
rat TRPM8 channel = target: T1, rat TRPM8 channel (Rattus norvegicus, UniProt Q8R455); assay: Ca2+ microfluorometry, menthol-induced Ca2+ influx in HEK293 cells expressing rat TRPM8; type: cell-based; settings: 100 µM menthol, HEK-rTRPM8; for % Blockade 5 µM: 5 µM compound; for % Blockade 50 µM: 50 µM compound; for IC50: Ca2+ microfluorometry
T1 construct: expressed in transfected cells; host or cells: HEK293 (stably transfected)
Procedure: The ability to inhibit menthol-induced Ca^2+ intracellular influx into the cytosol on HEK293 cells heterologously expressing the rat TRPM8 channel was measured and compared to that of AMTB, a well-known TRPM8 antagonist. Representative recordings of fluorescence obtained in microfluorometry experiments for selected compounds are in Supplementary Fig. S3.
(§1) Human embryonic kidney cell line (HEK) stably transfected with rTRPM8 or h-TRPV1 were used as previously described. Briefly, cells were seeded in 96-well plates at a cell density of 30,000 cells 2 days before treatment. Buffer used was HBBS (in mM): 138 NaCl, 5.33 KCl, 1.26 CaCl2, 0.5 MgCl-6H2O, 0.4 MgSO4-7H2O, 4 NaHCO3 0.44 KH2PO4, 0.3 Na2HPO4, pH 7.4. The day of treatment the medium was replaced with 100 µL of the dye loading solution Fluo-4 NW supplemented with probenecid 2.5 mM. After incubation, plates were transferred to a fluorescence plate reader (Polastar BMG). In the experimental protocol, the baseline fluorescence was recorded ([…]) for 3 cycles. After, vehicle, compound at different concentrations and the corresponding antagonist, 10 µM AMTB for TRPM8 or 10 µM Ruthenium Red for TRPV1 were added to the well. Fluorescence intensity was recorded during 7 cycles more. Finally, the agonist 100 µM menthol for TRPM8 or 1 µM capsaicin for TRPV1 was added and fluorescence intensity was recorded during 10 cycles more.
The degree of inhibition of TRPM8 channel gating was calculated by comparison to calcium increase signal elicited by test substances and menthol at 100 µM. Decrease of menthol signal was expressed as percentage of inhibition (%). All data are expressed as mean ± standard deviation (SD). Each condition was assessed by triplicate (n = 3) in 3 independent experiments (N = 3). Z-factor was calculated in each assay using the following equation: […]. In all the experiments Z-factor was ≥ 0.5. To calculate IC50, normalized responses (%) versus log [µM] were adjusted to a non-linear fit with variable slope, a four-parameter dose–response curve following curve Y = 100/(1 + 10^((Log IC50-X)*HillSlope)) where […].

hTRPV1 channels = target: T2, hTRPV1 channels (Homo sapiens, UniProt Q8NER1); assay: Ca2+ microfluorometry in HEK cells expressing hTRPV1 (capsaicin); type: cell-based; settings: 1 µM capsaicin; for TRPV1 Blockade (%) 5 µM: 5 µM compound; for TRPV1 Blockade (%) 50 µM: 50 µM compound
T2 construct: expressed in transfected cells; host or cells: HEK (stably transfected)
Procedure: β-Lactam and 2-ketopiperazine derivatives were also assayed for their activity in cell expressing hTRPV1 channels. No significant antagonist activity was measured for any derivatives within both chemotypes (Supplementary Tables S1, S2, and Fig. S3), indicating their selectivity for TRPM8 channels.
as §1
Table S1. Activity at hTRPV1 of β–lactams derived from phenylalaninol conjugates
Compd. Isomer Isomer TRPV1 Blockade (%)
Table S2. Activity at hTRPV1 of 2-ketopiperazines derived from phenylalaninol

[1] = test system: A549 (lung carcinoma, NSCLC); assay: SRB cytotoxicity assay, A549; type: cell-based; settings: 72 h, SRB; for TGI A549: total growth inhibition; for TGI A549 / CC50: unit inferred; for GI50 / CC50: Homo sapiens, A549; for CC50: read-out: LC50 A549
Procedure: (§2) Human tumor cell lines used in this study were purchased from the ATCC. A-549 (CCL-185), lung carcinoma; HT-29 (HTB-38), colorectal adenocarcinoma; MDA-MB-231 (HTB-26), breast adenocarcinoma; PSN1, pancreas adenocarcinoma.
(§3) All cell lines were maintained in DMEM (Dulbecco’s Modified Eagle's Medium) culture medium supplemented with 10% FBS (Fetal Bovine Serum), 100 Units/mL penicillin/streptomycin at 37 °C, 5% CO2 and 95% humidity.
(§4) Triplicate cultures were incubated for 72 h in the presence or absence of test compounds in dose–response curves (10 concentrations, typically ranging from 10 to 0.0026 µg/mL). A colorimetric assay using sulforhodamine B (SRB) was adapted for quantitative measurement of cell growth and cytotoxicity. A more detailed information on this assay is provides in the supplementary information. GI50 is the compound concentration that produces 50% inhibition on cell growth as compared to control cells.
(§5) In vitro bioassays for the detection of antitumor activity
(§6) The aim of this assay is to evaluate the in vitro cytostatic (ability to delay or arrest tumor cell growth) or cytotoxic (ability to kill tumor cells) activity of the samples […]
(§7) Name Nº ATCC Species Tissue Characteristics
(§8) A549 CCL-185 human lung lung carcinoma (NSCLC)
(§9) HT29 HTB-38 human colon colorectal adenocarcinoma
(§10) MDA-MB-231 HTB-26 human breast breast adenocarcinoma
(§11) PSN1 CRM-CRL-3211 human pancreas pancreas adenocarcinoma […]
(§12) A colorimetric assay, using Sulforhodamine B (SRB) reaction has been adapted to provide a quantitative measurement of cell growth and viability (following the technique described by Skehan et al. J. Natl. Cancer Inst. 1990, 82, 1107-1112 […]
(§13) This form of assay employs 96-well cell culture microplates following the standards of the American National Standards Institute and the Society for Laboratory […]
(§14) used in this study were obtained from the American Type Culture Collection (ATCC) and derive from different types of human cancer.
(§15) A549, HT29, MDA-MB-231 and PSN1 cells were maintained in Dulbecco’s
(§16) Modified Eagle Medium (DMEM) supplemented with 10% Fetal Bovine Serum (FBS), 2mM L-glutamine, 100 U/mL penicillin, and 100 U/mL streptomycin at 37 °C, 5% CO2 and 98% humidity. For the experiments, cells were harvested from subconfluent cultures using trypsinization and resuspended in fresh medium before counting and […]
(§17) A549, HT29, MDA-MB-231 and PSN1 cells were seeded in 96 well microtiter plates, at 5000 cells per well in aliquots of 150 µL, and allowed to attach to the plate surface for 18 hours (overnight) in drug free medium. After that, one control (untreated) plate of each cell line was fixed (as described below) and used for time zero reference value. Culture plates were then treated with test compounds (50 µL aliquots of 4X stock […]
(§18) solutions in complete culture medium plus 4% DMSO) using ten 2/5 serial dilutions (concentrations ranging from 10 to 0.003 µg/mL) and triplicate cultures (1% final concentration in DMSO). After 72 hours treatment, the antitumor effect was measured by using the SRB methodology: Briefly, cells were washed twice with PBS, fixed for 15 min in 1% glutaraldehyde solution at room temperature, rinsed twice in PBS, and stained in 0.4% SRB solution for 30 min at room temperature. Cells were then rinsed several times with 1% acetic acid solution and air-dried at room temperature. SRB was then extracted in 10 mM trizma base solution and the absorbance measured in an automated spectrophotometric plate reader at 490 nm.
(§19) Effects on cell growth and survival were estimated by applying the NCI algorithm (Boyd MR and Paull KD. Drug Dev. Res. 1995, 34, 91-109, DOI:10.1002/ddr.430340203). The values obtained in triplicate cultures were fitted by nonlinear regression to a four-parameters logistic curve by nonlinear regression analysis. . Using the absorbance measurements [time zero, (Tz), control growth, (C), and test growth in the presence of drug at the ten concentration levels (Ti)], the […]

[2] = test system: HT29 (colorectal adenocarcinoma); assay: SRB cytotoxicity assay, HT29; type: cell-based; settings: 72 h, SRB; for TGI HT29: total growth inhibition; for TGI HT29 / CC50: unit inferred; for GI50 / CC50: Homo sapiens, HT-29; for CC50: read-out: LC50 HT29
Procedure: as §2, §3, §4, §5, §6, §7, §8, §9, §10, §11, §12, §13, §14, §15, §16, §17, §18, §19

[3] = test system: MDA-MB-231 (breast adenocarcinoma); assay: SRB cytotoxicity assay, MDA-MB-231; type: cell-based; settings: 72 h, SRB; for TGI MDA-MB-231: total growth inhibition; for TGI MDA-MB-231 / CC50: unit inferred; for GI50 / CC50: Homo sapiens, MDA-MB-231; for CC50: read-out: LC50 MDA-MB-231
Procedure: as §2, §3, §4, §5, §6, §7, §8, §9, §10, §11, §12, §13, §14, §15, §16, §17, §18, §19

[4] = test system: PSN1 (pancreas adenocarcinoma); assay: SRB cytotoxicity assay, PSN1; type: cell-based; settings: 72 h, SRB; for TGI PSN1: total growth inhibition; for TGI PSN1 / CC50: unit inferred; for GI50 / CC50: Homo sapiens, PSN1; for CC50: read-out: LC50 PSN1
Procedure: as §2, §3, §4, §5, §6, §7, §8, §9, §10, §11, §12, §13, §14, §15, §16, §17, §18, §19

T2 sequence (Q8NER1 whole entry): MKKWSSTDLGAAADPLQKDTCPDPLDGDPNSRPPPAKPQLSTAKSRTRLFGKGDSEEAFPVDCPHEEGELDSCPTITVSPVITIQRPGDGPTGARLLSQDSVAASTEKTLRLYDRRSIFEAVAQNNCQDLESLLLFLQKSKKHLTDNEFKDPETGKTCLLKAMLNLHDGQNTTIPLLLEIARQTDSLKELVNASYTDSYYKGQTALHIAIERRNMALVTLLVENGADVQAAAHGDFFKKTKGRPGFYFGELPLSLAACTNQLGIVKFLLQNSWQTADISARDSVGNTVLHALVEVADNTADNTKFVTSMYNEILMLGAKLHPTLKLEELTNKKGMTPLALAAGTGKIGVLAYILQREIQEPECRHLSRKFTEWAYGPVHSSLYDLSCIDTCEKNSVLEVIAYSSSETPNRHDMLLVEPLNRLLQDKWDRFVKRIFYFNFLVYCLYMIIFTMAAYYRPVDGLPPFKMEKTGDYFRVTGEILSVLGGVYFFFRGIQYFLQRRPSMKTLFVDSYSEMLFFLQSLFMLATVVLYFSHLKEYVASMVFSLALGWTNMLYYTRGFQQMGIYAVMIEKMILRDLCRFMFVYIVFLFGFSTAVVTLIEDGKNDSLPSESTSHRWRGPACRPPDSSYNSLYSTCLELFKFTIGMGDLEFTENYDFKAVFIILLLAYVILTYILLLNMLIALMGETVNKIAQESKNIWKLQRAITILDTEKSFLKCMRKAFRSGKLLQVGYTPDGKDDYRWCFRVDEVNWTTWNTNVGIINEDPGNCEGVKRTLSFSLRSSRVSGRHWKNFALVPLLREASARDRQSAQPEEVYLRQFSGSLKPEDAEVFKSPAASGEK
T1 sequence (Q8R455 whole entry): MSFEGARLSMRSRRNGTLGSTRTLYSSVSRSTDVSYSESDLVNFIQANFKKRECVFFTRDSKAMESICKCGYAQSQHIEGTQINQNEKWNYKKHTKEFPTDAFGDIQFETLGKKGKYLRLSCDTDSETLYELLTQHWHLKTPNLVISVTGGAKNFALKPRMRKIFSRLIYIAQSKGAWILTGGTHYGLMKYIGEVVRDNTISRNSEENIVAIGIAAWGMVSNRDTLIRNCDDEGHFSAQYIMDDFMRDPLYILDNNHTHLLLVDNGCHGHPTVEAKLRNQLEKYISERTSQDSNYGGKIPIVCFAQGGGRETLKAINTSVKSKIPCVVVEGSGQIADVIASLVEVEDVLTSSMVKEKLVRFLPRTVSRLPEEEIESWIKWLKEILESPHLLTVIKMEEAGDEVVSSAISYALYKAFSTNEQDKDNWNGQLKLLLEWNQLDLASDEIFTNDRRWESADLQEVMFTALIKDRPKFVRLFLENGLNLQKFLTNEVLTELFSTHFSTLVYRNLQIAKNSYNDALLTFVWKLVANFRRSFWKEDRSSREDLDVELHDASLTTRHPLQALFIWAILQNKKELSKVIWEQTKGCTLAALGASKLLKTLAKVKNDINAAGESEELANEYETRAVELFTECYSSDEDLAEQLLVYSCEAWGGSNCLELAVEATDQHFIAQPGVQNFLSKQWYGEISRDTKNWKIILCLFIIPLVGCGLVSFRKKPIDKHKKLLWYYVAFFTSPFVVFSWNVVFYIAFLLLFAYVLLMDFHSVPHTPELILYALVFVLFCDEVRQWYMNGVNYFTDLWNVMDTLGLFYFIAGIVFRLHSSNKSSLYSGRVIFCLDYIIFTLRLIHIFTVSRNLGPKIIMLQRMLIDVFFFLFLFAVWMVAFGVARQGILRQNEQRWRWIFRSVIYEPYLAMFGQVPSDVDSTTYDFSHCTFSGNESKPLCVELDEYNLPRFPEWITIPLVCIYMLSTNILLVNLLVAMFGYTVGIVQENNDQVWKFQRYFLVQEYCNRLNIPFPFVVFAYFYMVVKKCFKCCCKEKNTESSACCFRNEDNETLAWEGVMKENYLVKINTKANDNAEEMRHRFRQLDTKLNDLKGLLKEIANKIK

Cc1cccc(COc2ccccc2C(=O)N(CCCN)Cc2cccs2)c1 [AMTB]
IC50 (TRPM8): 0.16 µM

COC(=O)[C@H](Cc1c[nH]c2ccccc12)N(Cc1ccccc1)Cc1ccccc1 [Bn2-Trp-OMe]
IC50 (TRPM8): 0.0002 µM

O=C(OCc1ccccc1)C(Cc1ccccc1)N1C[C@@H](Cc2ccccc2)N(C(=O)OCc2ccccc2)CC1=O (some centres unmarked) [Compound 15ab]
% Blockade 5 µM (rat TRPM8 channel): 101.4 ± 6.1% | % Blockade 50 µM (rat TRPM8 channel): 106 ± 5.06% | IC50 (rat TRPM8 channel): 1.8 ± 1.9 µM | TRPV1 Blockade (%) 5 µM (hTRPV1 channels): 6.3±2.1% | TRPV1 Blockade (%) 50 µM (hTRPV1 channels): 7.8±4.1% | TGI A549 [1]: > 17.8 µM | GI50 [1]: > 17.8 µM | CC50 [1]: > 17.8 µM | TGI HT29 [2]: > 17.8 µM | GI50 [2]: > 17.8 µM | CC50 [2]: > 17.8 µM | TGI MDA-MB-231 [3]: > 17.8 µM | GI50 [3]: > 17.8 µM | CC50 [3]: > 17.8 µM | TGI PSN1 [4]: > 17.8 µM | GI50 [4]: 6.4 µM | CC50 [4]: > 17.8 µM

C[C@@H]1C(=O)N(C(Cc2ccccc2)C(=O)OCc2ccccc2)C[C@@H](Cc2ccccc2)N1C(=O)OCc1ccccc1 (some centres unmarked) [Compound 30ab]
% Blockade 5 µM (rat TRPM8 channel): 101.7 ± 5.3% | % Blockade 50 µM (rat TRPM8 channel): 101.2 ± 11.4% | IC50 (rat TRPM8 channel): 0.16 µM | TRPV1 Blockade (%) 5 µM (hTRPV1 channels): 9.2±2.1% | TRPV1 Blockade (%) 50 µM (hTRPV1 channels): 13.9±4.8% | TGI A549 [1]: > 17.3 µM | GI50 [1]: 12.7 µM | CC50 [1]: > 17.3 µM | TGI HT29 [2]: > 17.3 µM | GI50 [2]: > 17.3 µM | CC50 [2]: > 17.3 µM | TGI MDA-MB-231 [3]: > 17.3 µM | GI50 [3]: > 17.3 µM | CC50 [3]: > 17.3 µM | TGI PSN1 [4]: > 17.3 µM | GI50 [4]: 8.3 µM | CC50 [4]: > 17.3 µM

O=C1NC(c2cccc([N+](=O)[O-])c2)=CCN1c1ccccc1O [Icilin]
EC50 (TRPM8): 0.005 µM

C[C@H](c1cc(F)cc(F)c1)N(C(=O)c1ccccc1)[C@@H](C(N)=O)c1ccccc1 [KPR-2579]
IC50 (TRPM8): 0.008 µM

CC1CCC(C(C)C)C(O)C1 (centres unmarked) [Menthol]
EC50 (TRPM8): 200 to 500 µM

C[C@H](c1ccc(F)cc1)N(Cc1cccc(C(=O)O)c1)C(=O)c1cnc2ccccc2c1 [PF-05105679]
IC50 (TRPM8): 0.181 µM

O=C(O)c1ccc(S(=O)(=O)N(Cc2ccc(OC(F)(F)F)cc2)c2ncc(C(F)(F)F)cc2Cl)cc1 [RQ 00203078]
IC50 (TRPM8): 0.0083 µM
